In EPA's ToxValDB 9.5 (doi:10.2903/j.efsa.2014.3814):
Converted amounts (≈) assume the structure as drawn.

Assays:
Aphidius rhopalosiphi = test: LR50; higher = less toxic; details: not reported; mortality
Typhlodromus pyri = test: LR50; higher = less toxic; details: not reported; mortality
Apis mellifera = details: acute, mortality
Oryctolagus sp. = details: reproduction developmental; body weight
Ictalurus punctatus = details: acute; duration: 96 hours; mortality
Canidae = details: chronic; duration: 1 years; oral; Dog Other; organ weight
Hypoaspis aculeifer = details: chronic/long-term; duration: 14 days
Lepomis macrochirus = details: acute; duration: 96 hours; mortality
Folsomia candida = details: chronic/long-term; duration: 28 days
Pimephales promelas = details: chronic/long-term; duration: 33 days; growth
Bibionidae = details: chronic/long-term; duration: 28 days

CNC(=O)c1cc(C#N)cc(C)c1NC(=O)c1cc(Br)nn1-c1ncccc1Cl [Cyantraniliprole]
LR50 (Aphidius rhopalosiphi): 0.102 g/ha
LR50 (Typhlodromus pyri): > 230 g/ha
LD50 (Colinus virginianus; acute, oral): > 2250 mg/kg
LC50 (Colinus virginianus; acute, oral, diet): > 1340 mg/kg
NOAEL (Colinus virginianus; reproduction developmental): 93.2 mg/kg-day
LD50 (Apis mellifera; dermal): > 0.0934 µg/piece
LD50 (Apis mellifera; oral, unspecified): > 0.105 µg/piece
LC50 (Pontoscolex corethrurus; acute, duration: 14 days, mortality): > 1000 mg/kg
NOEC (Pontoscolex corethrurus; chronic/long-term, duration: 56 days): > 1000 mg/kg
NOAEL (Oryctolagus sp.): 25 mg/kg-day
LC50 (Ictalurus punctatus): > 10 µg/mL
NOAEL (Canidae): 1 mg/kg-day
NOEC (Hypoaspis aculeifer): 1000 mg/kg
LC50 (Lepomis macrochirus): 2.4 µg/mL (≈ 5.07 µM)
NOEC (Folsomia candida): 0.08 mg/kg
LD50 (Rattus norvegicus; acute, oral, mortality): > 5000 mg/kg
NOAEL (Rattus norvegicus; reproduction developmental, organ weight): 1.2 mg/kg-day
NOEC (Pimephales promelas): 2.9 mg/L
NOEC (Bibionidae): 0.01 mg/L
